Earlier results on 31 molecules are cited in patent publication US20070213354A1, “Compositions and Methods for the Treatment of Multiple Sclerosis” (AmpliMed Corporation, priority 2006, published 2007).

As a reminder, the pIC50 is −log10 of the IC50, conventionally taken in molar units.

One data set relates to L1210 sensitive. The following applies: murine leukemia L1210 sensitive to standard cytotoxic agents; MTT, continuous exposure; cited from earlier work.
The test system of another data set is L1210 resistant. Particulars: murine leukemia L1210 resistant, P-glycoprotein producing; MTT, continuous exposure; cited from earlier work.
The next data set has as its system neonatal rat myocytes. The following applies: 1 hour drug concentration that reduces ATP/protein ratio to 50% of untreated control myocytes; read-out: IC50 Cardiotox; cited from earlier work.

The structures appear in SMILES notation. pIC50: −log10 of the molar value.

As for `CN(C)CCN1C(=O)c2cccc3cc4ccc(Cl)cc4c(c23)C1=O` [*10-Cl], the pIC50 in the data set with L1210 sensitive is 8.30; with L1210 resistant, 8.10; with neonatal rat myocytes, 6.11.
In the case of `CC(=O)Nc1cc2c3c(c4ccccc4cc3c1)C(=O)N(CCN(C)C)C2=O` [*5-NHCOCH3], the pIC50 in the data set with L1210 sensitive is 7.72; in the data set on L1210 resistant, 7.14; with neonatal rat myocytes it was 6.75.
For `CCCOc1c2ccccc2c2c3c(cccc13)C(=O)N(CCN(C)C)C2=O` [*6-OC3H7], the pIC50 with L1210 sensitive is 7.77; in the data set with L1210 resistant, 7.31; in the data set on neonatal rat myocytes, 5.11.
Take `Cc1ccc2cc3cccc4c3c(c2c1)C(=O)N(CCN(C)C)C4=O` [*10-CH3]: the figures for the pIC50 with L1210 sensitive, with L1210 resistant and in the data set on neonatal rat myocytes were 7.39, 7.27 and 6.00, respectively.
As for `CN(C)CCN1C(=O)c2ccc(I)c3cc4ccccc4c(c23)C1=O` [*6-I], the pIC50 was 6.38 with L1210 sensitive, 6.38 with L1210 resistant and 4.36 in the data set with neonatal rat myocytes.
As to `CN(C)CCNc1ccc2c3c(c4ccccc4cc13)C(=O)N(CCN(C)C)C2=O` [*6-NH(CH2)2N(CH3)2], the pIC50 with L1210 sensitive was 10.40; in the data set with L1210 resistant, 10.40; in the data set with neonatal rat myocytes, 5.38.
As for `CNCCN1C(=O)c2ccc(Cl)c3cc4ccccc4c(c23)C1=O` [2-(CH2)2NHCH3; 6-Cl], the pIC50 was 7.28 in the data set on L1210 sensitive, 7.28 in the data set on L1210 resistant and 5.12 with neonatal rat myocytes.
Consider `CN(C)CCN1C(=O)c2cc(N)cc3cc4ccccc4c(c23)C1=O` [*5-NH2], for which the pIC50 in the data set with L1210 sensitive was 8.22; in the data set on L1210 resistant it was 7.82; with neonatal rat myocytes, 5.76.
As for `CN(C)CCN1C(=O)c2cccc3cc4c(N)cccc4c(c23)C1=O` [*8-NH2], the pIC50 with L1210 sensitive was 5.17; with L1210 resistant, 5.17; in the data set on neonatal rat myocytes it was less than 4.09.
For `COc1ccc2cc3cccc4c3c(c2c1)C(=O)N(CCN(C)C)C4=O` [*10-OCH3], the pIC50 is 7.68 with L1210 sensitive, 7.28 in the data set on L1210 resistant and 5.04 with neonatal rat myocytes.
With `O=C1c2cccc3cc4ccccc4c(c23)C(=O)N1CCN1CCCCC1` [2-(CH2)2N(CH2)5], the pIC50 in the data set on L1210 sensitive was 7.29; with L1210 resistant it was 7.29; in the data set with neonatal rat myocytes, 4.98.
With `O=C1c2cccc3cc4ccccc4c(c23)C(=O)N1c1cccnc1` [2-(3-pyridyl)], the negative-log IC50 (pIC50) was 6.26 in the data set on L1210 sensitive, 6.26 in the data set with L1210 resistant and less than 4.60 in the data set on neonatal rat myocytes.
For `O=C1c2cccc3cc4ccccc4c(c23)C(=O)N1CCN1CCNCC1` [2-(CH2)2—N-piperazinyl], the pIC50 in the data set on L1210 sensitive was 6.76; in the data set on L1210 resistant, 6.33; with neonatal rat myocytes, 5.17.
On to `CN(C)c1ccc(N2C(=O)c3cccc4cc5ccccc5c(c34)C2=O)cc1` [2-(p-N(CH3)2)—C6H5)], for which the pIC50 was 6.73 in the data set on L1210 sensitive, 5.75 with L1210 resistant and 4.43 with neonatal rat myocytes.
As for `O=C1c2cccc3cc4ccccc4c(c23)C(=O)N1CCCN(CCO)CCO` [2-(CH2)3N(CH2CH2OH)2], the pIC50 in the data set with L1210 sensitive was 7.12; with L1210 resistant, 6.85; with neonatal rat myocytes, 5.05.
Turning to `CC(=O)Nc1ccc2c3c4c(cccc4cc2c1)C(=O)N(CCN(C)C)C3=O` [*9-NHCOCH3], the pIC50 with L1210 sensitive is 6.94; in the data set on L1210 resistant it was 6.77; in the data set with neonatal rat myocytes it was 6.31.
As to `CN(C)CCN1C(=O)c2cccc3cc4ccc(NC(=O)C(C)(C)C)cc4c(c23)C1=O` [*10-NHCOC(CH3)3], the pIC50 in the data set on L1210 sensitive is 6.70; in the data set with L1210 resistant, 6.70; in the data set on neonatal rat myocytes, 4.96.
On to `CN1CCCC1CCN1C(=O)c2cccc3cc4ccccc4c(c23)C1=O` (stereo not drawn) [2-(CH2)2-(1-methyl-2-pyrrolidinyl)], for which the results for the pIC50 with L1210 sensitive, in the data set with L1210 resistant and in the data set with neonatal rat myocytes were 7.29, 7.25 and 5.15, respectively.
With `COc1cccc2c1C(=O)c1c(O)c3c(c(O)c1C2=O)C[C@@](O)(C(=O)CO)C[C@@H]3O[C@H]1C[C@H](N)[C@H](O)[C@H](C)O1` [Doxorubicin, reference compound], the figures for the pIC50 in the data set on L1210 sensitive, in the data set with L1210 resistant and with neonatal rat myocytes were 7.46, 5.41 and 4.99, respectively.
Take `CN(C)CCN1C(=O)c2cccc3cc4c(O)cccc4c(c23)C1=O` [*8-OH]: the negative-log IC50 (pIC50) in the data set on L1210 sensitive was 6.97; with L1210 resistant, 7.17; with neonatal rat myocytes, 5.53.
Take `CN(C)CCN1C(=O)c2cccc3c(O)c4ccccc4c(c23)C1=O` [*7-OH]: the results for the negative logarithm of the IC50 (pIC50) with L1210 sensitive, in the data set on L1210 resistant and in the data set on neonatal rat myocytes were 6.33, 6.67 and less than 4.62, respectively.
For `CN(C)CCN1C(=O)c2cccc3cc4c([N+](=O)[O-])cccc4c(c23)C1=O` [*8-NO2], the figures for the pIC50 in the data set on L1210 sensitive, with L1210 resistant and in the data set on neonatal rat myocytes were 7.30, 7.70 and 6.19, respectively.
As to `COc1cccc2c3c4c(cccc4cc12)C(=O)N(CCN(C)C)C3=O` [*8-OCH3], the values for the negative logarithm of the IC50 (pIC50) in the data set on L1210 sensitive, with L1210 resistant and in the data set on neonatal rat myocytes were 7.89, 7.74 and 6.09, respectively.
Regarding `CN(C)CCN1C(=O)c2ccc(O)c3cc4ccccc4c(c23)C1=O` [*6-OH], the negative-log IC50 (pIC50) is 6.66 in the data set with L1210 sensitive, 6.84 in the data set with L1210 resistant and less than 4.62 with neonatal rat myocytes.
Take `Cc1ccc2cc3ccccc3c3c2c1C(=O)N(CCN(C)C)C3=O` [*4-CH3]: the values for the negative-log IC50 (pIC50) with L1210 sensitive, in the data set on L1210 resistant and in the data set with neonatal rat myocytes were 7.27, 7.17 and 5.87, respectively.
`CN(C)CCN1C(=O)c2ccc(NCCO)c3cc4ccccc4c(c23)C1=O` [*6-NH(CH2)2OH]: the negative logarithm of the IC50 (pIC50) in the data set on L1210 sensitive was 8.22; in the data set on L1210 resistant it was 7.32; with neonatal rat myocytes, 5.92.
With `CN(C)CCN1C(=O)c2c(NC(=O)C(C)(C)C)ccc3cc4ccccc4c(c23)C1=O` [*4-NHCOC(CH3)3], the negative-log IC50 (pIC50) with L1210 sensitive was 6.06; with L1210 resistant, 6.76; in the data set with neonatal rat myocytes it was less than 4.61.
For `CN(C)CCNc1ccc2c3c(c4cccc(Cl)c4cc13)C(=O)N(CCN(C)C)C2=O` [*6-NH(CH2)2N(CH3)2; 8-Cl], the figures for the pIC50 in the data set on L1210 sensitive, in the data set with L1210 resistant and in the data set with neonatal rat myocytes were 8.52, 8.15 and 5.49, respectively.
For `CN(C)CCN1C(=O)c2cccc3cc4cc(N)ccc4c(c23)C1=O` [*9-NH2], the values for the negative-log IC50 (pIC50) in the data set on L1210 sensitive, in the data set with L1210 resistant and with neonatal rat myocytes were 8.52, 7.80 and 6.09, respectively.
Take `CCSc1ccc2c3c(c4ccccc4cc13)C(=O)N(CCN(C)C)C2=O` [*6-SC2H5]: the pIC50 with L1210 sensitive is 8.22; in the data set on L1210 resistant, 8.30; with neonatal rat myocytes, 5.11.
As for `CC(=O)Nc1c2ccccc2c2c3c(cccc13)C(=O)N(CCN(C)C)C2=O` [*7-NHCOCH3], the pIC50 in the data set on L1210 sensitive is 6.31; with L1210 resistant, 6.31; in the data set with neonatal rat myocytes, less than 4.63.
